# Data as given in PMC6457931 (Science Advances, 2019).
# What was measured:
# 229E S protein = 229E S protein (Human coronavirus 229E, UniProt P15423); assay: cell-based; parameters: species or system HCoV-229E
# NL63 S protein = NL63 S protein (Human coronavirus NL63, UniProt Q6Q1S2); assay: cell-based; parameters: species or system HCoV-NL63
# [1] = test system: S proteins of multiple HCoVs; type: cell-based
# pseudotyped 229E = conditions: 48 h
# pseudotyped NL63 = conditions: 48 h
# pseudotyped OC43 = conditions: 48 h
# OC43 = conditions: read-out: IC50, live OC43 infection; HCT-8 cells, 100 TCID50, day 5
# NL63 = conditions: read-out: IC50, live NL63 infection; LLC-MK2 cells
# OC43 S protein = OC43 S protein (Human coronavirus OC43, UniProt P36334); assay: cell-based; conditions: Inhibitory activity of peptides, IC50, HCoV-OC43 cell-cell fusion assay
# OC43 S protein, sequence (P36334 14-1336 limits assumed): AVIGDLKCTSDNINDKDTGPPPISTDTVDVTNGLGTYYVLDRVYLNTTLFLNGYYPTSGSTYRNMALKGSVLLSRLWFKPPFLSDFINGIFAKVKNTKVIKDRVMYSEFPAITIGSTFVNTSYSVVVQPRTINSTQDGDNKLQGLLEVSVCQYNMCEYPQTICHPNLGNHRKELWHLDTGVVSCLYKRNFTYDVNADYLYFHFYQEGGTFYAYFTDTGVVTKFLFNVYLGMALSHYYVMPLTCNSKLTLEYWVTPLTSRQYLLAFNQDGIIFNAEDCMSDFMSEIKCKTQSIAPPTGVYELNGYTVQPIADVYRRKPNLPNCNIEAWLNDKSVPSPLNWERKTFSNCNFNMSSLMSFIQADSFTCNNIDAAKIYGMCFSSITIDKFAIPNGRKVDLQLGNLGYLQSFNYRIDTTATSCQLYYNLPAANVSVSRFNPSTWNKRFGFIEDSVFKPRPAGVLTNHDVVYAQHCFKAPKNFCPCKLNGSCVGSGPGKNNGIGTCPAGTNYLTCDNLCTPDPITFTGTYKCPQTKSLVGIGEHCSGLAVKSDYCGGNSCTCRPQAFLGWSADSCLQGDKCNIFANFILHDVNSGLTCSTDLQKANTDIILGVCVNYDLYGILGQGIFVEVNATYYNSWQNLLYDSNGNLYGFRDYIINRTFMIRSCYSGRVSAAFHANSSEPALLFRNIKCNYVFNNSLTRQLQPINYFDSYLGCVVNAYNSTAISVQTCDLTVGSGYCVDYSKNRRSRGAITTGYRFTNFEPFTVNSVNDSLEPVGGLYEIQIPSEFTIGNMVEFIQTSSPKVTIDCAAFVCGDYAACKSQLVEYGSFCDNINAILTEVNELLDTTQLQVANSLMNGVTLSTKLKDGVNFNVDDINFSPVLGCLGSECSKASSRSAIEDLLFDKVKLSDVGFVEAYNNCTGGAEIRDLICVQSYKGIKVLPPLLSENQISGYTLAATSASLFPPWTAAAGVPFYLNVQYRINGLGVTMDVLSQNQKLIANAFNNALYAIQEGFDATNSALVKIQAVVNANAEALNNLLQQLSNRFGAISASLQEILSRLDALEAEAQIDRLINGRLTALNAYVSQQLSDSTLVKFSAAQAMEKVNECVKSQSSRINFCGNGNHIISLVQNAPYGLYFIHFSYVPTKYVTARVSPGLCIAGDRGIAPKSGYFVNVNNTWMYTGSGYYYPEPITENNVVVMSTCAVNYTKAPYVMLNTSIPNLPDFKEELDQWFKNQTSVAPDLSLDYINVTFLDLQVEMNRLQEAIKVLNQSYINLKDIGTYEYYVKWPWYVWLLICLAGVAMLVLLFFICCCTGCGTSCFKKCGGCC
# [2] = molecular target: HR1 domain of HCoV-229E S protein (residues 785 to 873) (HCoV-229E) (UniProt P15423)
# HR1 domain of HCoV-229E S protein (residues 785 to 873) (HCoV-229E), sequence (P15423 785-873): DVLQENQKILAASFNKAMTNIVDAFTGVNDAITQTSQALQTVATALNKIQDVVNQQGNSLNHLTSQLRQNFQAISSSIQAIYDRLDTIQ
# [3] = molecular target: HR1 domain of MERS-CoV S protein (residues 984 to 1062) (MERS-CoV) (UniProt K9N5Q8)
# HR1 domain of MERS-CoV S protein (residues 984 to 1062) (MERS-CoV), sequence (K9N5Q8 984-1062): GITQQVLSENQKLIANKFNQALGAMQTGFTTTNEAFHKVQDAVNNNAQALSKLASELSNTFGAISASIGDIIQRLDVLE
# [4] = molecular target: HR1 domain of SARS-CoV S protein (residues 892 to 970) (SARS-CoV) (UniProt P59594)
# [5] = high or low dose, before and 1, 3, 5 days after final treatment, P > 0.05
# 229E S protein, sequence (P15423 16-1173 limits assumed): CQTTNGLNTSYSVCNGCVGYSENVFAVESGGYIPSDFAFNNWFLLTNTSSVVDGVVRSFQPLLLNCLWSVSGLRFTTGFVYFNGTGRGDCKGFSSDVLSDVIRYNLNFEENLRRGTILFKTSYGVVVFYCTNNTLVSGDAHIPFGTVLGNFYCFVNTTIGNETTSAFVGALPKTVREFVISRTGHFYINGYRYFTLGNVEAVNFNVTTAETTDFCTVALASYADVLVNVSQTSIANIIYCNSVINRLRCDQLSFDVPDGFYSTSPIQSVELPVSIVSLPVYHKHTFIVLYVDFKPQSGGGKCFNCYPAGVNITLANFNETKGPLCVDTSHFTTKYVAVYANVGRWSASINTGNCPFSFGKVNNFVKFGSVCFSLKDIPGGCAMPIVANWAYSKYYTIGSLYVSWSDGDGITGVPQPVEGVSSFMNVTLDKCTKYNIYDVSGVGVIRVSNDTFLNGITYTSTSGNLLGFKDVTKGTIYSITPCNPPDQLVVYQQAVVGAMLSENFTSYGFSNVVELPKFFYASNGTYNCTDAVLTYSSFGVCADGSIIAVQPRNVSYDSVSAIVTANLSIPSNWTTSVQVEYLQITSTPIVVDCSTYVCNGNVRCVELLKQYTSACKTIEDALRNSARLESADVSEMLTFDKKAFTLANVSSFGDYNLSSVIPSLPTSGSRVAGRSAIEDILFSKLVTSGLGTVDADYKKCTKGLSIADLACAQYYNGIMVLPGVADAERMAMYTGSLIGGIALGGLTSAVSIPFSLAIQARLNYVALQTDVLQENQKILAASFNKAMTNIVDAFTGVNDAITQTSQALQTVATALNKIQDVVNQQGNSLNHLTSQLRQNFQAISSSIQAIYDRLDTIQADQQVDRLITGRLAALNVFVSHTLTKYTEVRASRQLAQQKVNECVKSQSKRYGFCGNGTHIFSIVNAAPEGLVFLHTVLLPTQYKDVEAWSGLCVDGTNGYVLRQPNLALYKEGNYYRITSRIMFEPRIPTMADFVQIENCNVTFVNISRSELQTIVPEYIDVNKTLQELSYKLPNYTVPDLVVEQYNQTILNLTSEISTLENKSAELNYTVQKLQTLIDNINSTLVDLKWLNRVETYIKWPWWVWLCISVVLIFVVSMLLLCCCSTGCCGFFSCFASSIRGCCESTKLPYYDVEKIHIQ
# NL63 S protein, sequence (Q6Q1S2 19-1338 limits assumed): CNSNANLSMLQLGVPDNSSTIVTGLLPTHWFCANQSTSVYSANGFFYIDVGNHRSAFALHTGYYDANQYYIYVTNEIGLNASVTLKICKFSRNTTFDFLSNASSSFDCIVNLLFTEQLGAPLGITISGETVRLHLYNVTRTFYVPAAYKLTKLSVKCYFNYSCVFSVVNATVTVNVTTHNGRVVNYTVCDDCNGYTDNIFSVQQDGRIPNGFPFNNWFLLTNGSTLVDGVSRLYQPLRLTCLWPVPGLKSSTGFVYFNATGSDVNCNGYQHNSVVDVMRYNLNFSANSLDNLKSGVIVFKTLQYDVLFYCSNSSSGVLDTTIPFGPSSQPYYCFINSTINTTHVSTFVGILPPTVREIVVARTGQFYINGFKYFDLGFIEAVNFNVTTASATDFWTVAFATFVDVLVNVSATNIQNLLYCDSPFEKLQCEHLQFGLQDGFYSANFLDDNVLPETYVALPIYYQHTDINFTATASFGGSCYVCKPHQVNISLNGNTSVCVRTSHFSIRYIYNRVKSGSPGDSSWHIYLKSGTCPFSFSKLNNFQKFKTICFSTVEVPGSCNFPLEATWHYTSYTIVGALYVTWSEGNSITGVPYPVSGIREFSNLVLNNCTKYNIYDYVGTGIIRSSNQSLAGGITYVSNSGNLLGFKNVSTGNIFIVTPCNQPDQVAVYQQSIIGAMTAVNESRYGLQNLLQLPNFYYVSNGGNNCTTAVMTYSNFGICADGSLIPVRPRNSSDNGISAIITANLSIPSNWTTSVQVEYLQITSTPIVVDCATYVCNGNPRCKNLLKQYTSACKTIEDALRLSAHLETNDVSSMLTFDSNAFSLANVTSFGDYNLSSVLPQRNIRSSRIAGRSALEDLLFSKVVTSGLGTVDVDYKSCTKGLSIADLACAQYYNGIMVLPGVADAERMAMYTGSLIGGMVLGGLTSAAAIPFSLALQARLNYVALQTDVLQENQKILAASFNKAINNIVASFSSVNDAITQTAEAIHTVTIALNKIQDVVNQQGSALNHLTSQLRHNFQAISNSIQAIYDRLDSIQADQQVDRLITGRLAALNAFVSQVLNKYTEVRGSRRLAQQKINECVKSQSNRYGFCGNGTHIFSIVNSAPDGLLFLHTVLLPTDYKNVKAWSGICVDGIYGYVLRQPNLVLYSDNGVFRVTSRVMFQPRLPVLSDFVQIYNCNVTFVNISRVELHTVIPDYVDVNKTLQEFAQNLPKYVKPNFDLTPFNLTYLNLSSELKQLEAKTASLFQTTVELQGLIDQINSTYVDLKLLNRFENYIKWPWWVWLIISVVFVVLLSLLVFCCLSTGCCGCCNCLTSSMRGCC
molecule,measurement,setting,value
CC[C@H](C)[C@H](NC(=O)[C@H](C)NC(=O)[C@H](CC(=O)O)NC(=O)[C@H](CC(N)=O)NC(=O)[C@@H](NC(=O)CNC(=O)[C@@H](NC(=O)[C@H](Cc1ccccc1)NC(=O)[C@H](C)NC(=O)[C@H](CC(=O)O)NC(=O)[C@@H](NC(=O)[C@@H](NC(=O)[C@H](CC(N)=O)NC(=O)[C@@H](NC(=O)[C@H](CCSC)NC(=O)[C@H](C)NC(=O)[C@H](CCCCN)NC(=O)[C@H](CC(N)=O)NC(=O)[C@H](Cc1ccccc1)NC(=O)[C@H](CO)NC(=O)[C@H](C)NC(=O)[C@H](C)N)[C@@H](C)O)[C@@H](C)CC)C(C)C)[C@@H](C)O)C(C)C)C(=O)N[C@H](C(=O)N[C@@H](CCC(N)=O)C(=O)N[C@H](C(=O)N[C@@H](CO)C(=O)N[C@@H](CCC(N)=O)C(=O)N[C@@H](C)C(=O)N[C@@H](CC(C)C)C(=O)N[C@@H](CCC(N)=O)C(=O)N[C@H](C(=O)N[C@H](C(=O)N[C@@H](C)C(=O)N[C@H](C(=O)N[C@@H](C)C(=O)N[C@@H](CC(C)C)C(=O)N[C@@H](CC(N)=O)C(=O)N[C@@H](CCCCN)C(=O)N[C@H](C(=O)N[C@@H](CCC(N)=O)C(=O)N[C@@H](CC(=O)O)C(=O)N[C@H](C(=O)N[C@H](C(=O)N[C@@H](CC(N)=O)C(=O)N[C@@H](CCC(N)=O)C(=O)N[C@@H](CCC(N)=O)C(=O)NCC(=O)N[C@@H](CC(N)=O)C(=O)N[C@@H](CO)C(=O)N[C@@H](CC(C)C)C(=O)N[C@@H](CC(N)=O)C(=O)N[C@@H](Cc1c[nH]cn1)C(=O)N[C@@H](CC(C)C)C(=O)N[C@H](C(=O)N[C@@H](CO)C(=O)N[C@@H](CCC(N)=O)C(=O)O)[C@@H](C)O)C(C)C)C(C)C)[C@@H](C)CC)[C@@H](C)O)C(C)C)[C@@H](C)O)[C@@H](C)O)[C@@H](C)O [229E-HR1P],Inhibitory effects on 229E-S-mediated cell-cell fusion,229E S protein,moderate inhibitory effects
same,Inhibitory effects on NL63-S-mediated cell-cell fusion,NL63 S protein,moderate inhibitory effects
CC[C@H](C)[C@H](NC(=O)[C@H](CC(N)=O)NC(=O)[C@H](CC(=O)O)NC(=O)[C@@H](NC(=O)[C@H](CC(C)C)NC(=O)[C@@H](NC(=O)[C@H](CCC(N)=O)NC(=O)[C@H](CC(C)C)NC(=O)[C@H](CCCCN)NC(=O)[C@H](CCC(N)=O)NC(=O)[C@@H](NC(=O)[C@@H](NC(=O)[C@H](Cc1ccc(O)cc1)NC(=O)[C@H](CC(N)=O)NC(=O)[C@H](CC(C)C)NC(=O)[C@H](CCC(=O)O)NC(=O)[C@H](C)NC(=O)[C@H](CO)NC(=O)[C@H](CCCCN)NC(=O)[C@H](CC(N)=O)NC(=O)[C@H](CCC(=O)O)NC(=O)[C@H](CC(C)C)NC(=O)[C@@H](NC(=O)[C@H](CO)NC(=O)[C@@H](NC(=O)[C@H](CCC(=O)O)NC(=O)[C@H](CO)NC(=O)[C@@H](NC(=O)[C@H](CC(C)C)NC(=O)[C@H](CC(N)=O)NC(=O)[C@H](CC(C)C)NC(=O)[C@@H](NC(=O)[C@@H](NC(=O)[C@H](CCC(N)=O)NC(=O)[C@H](CC(N)=O)NC(=O)[C@H](Cc1ccc(O)cc1)NC(=O)[C@H](CCC(N)=O)NC(=O)[C@H](CCC(=O)O)NC(=O)[C@@H](NC(=O)[C@@H](N)C(C)C)C(C)C)[C@@H](C)O)[C@@H](C)CC)[C@@H](C)O)[C@@H](C)CC)[C@@H](C)O)[C@@H](C)O)C(C)C)[C@@H](C)O)[C@@H](C)CC)C(=O)N[C@@H](CC(N)=O)C(=O)N[C@@H](CO)C(=O)N[C@H](C(=O)N[C@@H](CC(C)C)C(=O)N[C@H](C(=O)N[C@@H](CC(=O)O)C(=O)N[C@@H](CC(C)C)C(=O)N[C@@H](CCCCN)C(=O)N[C@@H](Cc1c[nH]c2ccccc12)C(=O)N[C@@H](CC(C)C)C(=O)O)C(C)C)[C@@H](C)O [229E-HR2P],"Inhibitory activity against β-HCoVs (MERS-CoV, SARS-CoV, OC43) S-mediated fusion",[1],no effective inhibitory activity
same,IC50,229E,560 nM
CC[C@H](C)[C@H](NC(=O)[C@H](C)NC(=O)[C@H](CCC(=O)O)NC(=O)[C@H](CCC(=O)O)NC(=O)[C@H](CC(C)C)NC(=O)[C@H](CCCCN)NC(=O)[C@H](CCCCN)NC(=O)[C@H](CCSC)NC(=O)[C@H](CCC(=O)O)NC(=O)[C@H](Cc1ccc(O)cc1)NC(=O)[C@H](CCC(=O)O)NC(=O)[C@H](CC(C)C)NC(=O)[C@H](CC(=O)O)NC(=O)[C@H](CC(C)C)NC(=O)[C@H](Cc1ccccc1)NC(=O)[C@@H](NC(=O)[C@@H](NC(=O)[C@H](CC(N)=O)NC(=O)[C@@H](NC(=O)[C@H](CCC(N)=O)NC(=O)[C@H](CC(=O)O)NC(=O)[C@H](CC(C)C)NC(=O)[C@@H](N)CO)[C@@H](C)CC)C(C)C)[C@@H](C)O)C(=O)N[C@@H](CCCCN)C(=O)N[C@@H](CCCCN)C(=O)N[C@@H](CC(C)C)C(=O)N[C@@H](CCC(=O)O)C(=O)N[C@@H](CCC(=O)O)C(=O)N[C@@H](CO)C(=O)N[C@@H](Cc1ccc(O)cc1)C(=O)N[C@H](C(=O)N[C@@H](CC(=O)O)C(=O)N[C@@H](CC(C)C)C(=O)N[C@@H](CCCCN)C(=O)N[C@@H](CCC(=O)O)C(=O)N[C@@H](CC(C)C)C(=O)O)[C@@H](C)CC [EK1],IC50,pseudotyped 229E,3350 nM
same,IC50,pseudotyped NL63,6020 nM
same,IC50,pseudotyped OC43,1810 nM
same,IC50,OC43,620 nM
same,IC50,229E,690 nM
same,IC50,NL63,480 nM
same,EK1-specific antibodies in sera (ELISA),2 weeks after intranasal administration,No EK1-specific antibodies were detected
same,weight gain/loss compared to PBS-treated mice,"20 or 100 mg/kg intranasal every day for 1 week, followed 2 weeks",no apparent difference
same,"histopathology of lung, liver, kidney, and spleen sections","hematoxylin and eosin, 4 weeks after administration",no pathological abnormality
same,alanine aminotransferase (ALT) in sera versus PBS-treated group,[5],no significant difference
same,creatinine in sera versus PBS-treated group,[5],no significant difference
CC[C@H](C)[C@H](NC(=O)[C@H](CC(C)C)NC(=O)CNC(=O)[C@H](CCC(N)=O)NC(=O)[C@H](CC(C)C)NC(=O)[C@H](CCC(=O)O)NC(=O)[C@@H](NC(=O)[C@@H](NC(=O)[C@@H](NC(=O)[C@H](CCC(N)=O)NC(=O)[C@H](Cc1ccccc1)NC(=O)[C@H](CC(C)C)NC(=O)[C@H](CO)NC(=O)[C@H](C)NC(=O)[C@@H](NC(=O)[C@H](CCCCN)NC(=O)[C@H](C)NC(=O)[C@H](CCC(=O)O)NC(=O)[C@H](CC(C)C)NC(=O)[C@H](CCC(N)=O)NC(=O)[C@H](CCCCN)NC(=O)[C@H](CC(C)C)NC(=O)[C@H](CCC(=O)O)NC(=O)[C@H](CO)NC(=O)[C@H](CO)NC(=O)[C@H](CC(C)C)NC(=O)[C@H](CC(N)=O)NC(=O)[C@H](CC(C)C)NC(=O)[C@H](Cc1ccc(O)cc1)NC(=O)[C@@H](NC(=O)[C@H](CC(C)C)NC(=O)[C@H](CC(N)=O)NC(=O)[C@H](Cc1ccccc1)NC(=O)[C@@H]1CCCN1C(=O)[C@@H](NC(=O)[C@H](CC(C)C)NC(=O)[C@@H](N)CC(=O)O)[C@@H](C)O)[C@@H](C)O)[C@@H](C)O)[C@@H](C)O)[C@@H](C)O)C(C)C)C(=O)N[C@@H](CC(=O)O)C(=O)N[C@@H](CCC(N)=O)C(=O)N[C@H](C(=O)N[C@@H](CC(N)=O)C(=O)N[C@@H](CO)C(=O)N[C@H](C(=O)N[C@@H](Cc1ccc(O)cc1)C(=O)N[C@H](C(=O)N[C@@H](CC(=O)O)C(=O)N[C@@H](CC(C)C)C(=O)N[C@@H](CCCCN)C(=O)N[C@@H](CC(C)C)C(=O)N[C@@H](CC(C)C)C(=O)O)C(C)C)[C@@H](C)O)[C@@H](C)CC [NL63-HR2P],"Inhibitory activity against β-HCoVs (MERS-CoV, SARS-CoV, OC43) S-mediated fusion",[1],no effective inhibitory activity
CC[C@H](C)[C@H](NC(=O)[C@H](CC(=O)O)NC(=O)[C@H](CCCCN)NC(=O)[C@H](CC(C)C)NC(=O)[C@H](CC(N)=O)NC(=O)[C@@H](NC(=O)[C@H](Cc1ccc(O)cc1)NC(=O)[C@H](CO)NC(=O)[C@H](CCC(N)=O)NC(=O)[C@H](CC(N)=O)NC(=O)[C@H](CC(C)C)NC(=O)[C@@H](NC(=O)[C@H](CCCCN)NC(=O)[C@@H](NC(=O)[C@H](C)NC(=O)[C@H](CCC(=O)O)NC(=O)[C@H](CCC(N)=O)NC(=O)[C@H](CC(C)C)NC(=O)[C@H](CCCNC(=N)N)NC(=O)[C@H](CC(N)=O)NC(=O)[C@H](CCSC)NC(=O)[C@H](CCC(=O)O)NC(=O)[C@H](CC(=O)O)NC(=O)[C@H](CCC(N)=O)NC(=O)[C@H](CC(C)C)NC(=O)[C@H](CC(=O)O)NC(=O)[C@H](CC(C)C)NC(=O)[C@H](Cc1ccccc1)NC(=O)[C@@H](NC(=O)[C@@H](NC(=O)[C@H](CC(N)=O)NC(=O)[C@@H](NC(=O)[C@H](Cc1ccc(O)cc1)NC(=O)[C@H](CC(=O)O)NC(=O)[C@H](CC(C)C)NC(=O)[C@@H](N)CO)[C@@H](C)CC)C(C)C)[C@@H](C)O)[C@@H](C)CC)C(C)C)[C@@H](C)CC)C(=O)O [OC43-HR2P],IC50,"229E S protein; Inhibitory activity of peptides, IC50, HCoV-229E cell-cell fusion assay",840 nM
same,IC50,"NL63 S protein; Inhibitory activity of peptides, IC50, HCoV-NL63 cell-cell fusion assay",940 nM
same,IC50,OC43 S protein,660 nM
same,IC50,OC43,930 nM
OC43-HR2P (peptide),IC50 of inhibition of 229E S-mediated cell-cell fusion,[2],840 nM
same,IC50 of inhibition of MERS-CoV S-mediated cell-cell fusion,[3],390 nM
same,IC50 of inhibition of SARS-CoV S-mediated cell-cell fusion,[4],540 nM
